Measurements published in US20040241244A1, “Neuronal growth enhancement by prostaglandin compositions and methods” (NexMed (Holdings) Inc., priority 2003, published 2004).
Several values for one entry are separate records, joined by “and”; a condition that tells them apart may be missing. Identical values can stand only once. Like-named read-outs stand apart in the source and are kept apart here.

Assays:
EP2 receptor = EP2 receptor (Mus musculus, UniProt Q62053); settings: read-out: affinity for the EP2 receptor; cited from earlier work
[1] = tested on: mouse neuroblastoma cells; settings: cited from earlier work
[2] = tested on: cultured mouse dorsal root ganglion neurons; settings: 20 micromolar, at 2 hours; cited from earlier work
[3] = tested on: dorsocaudal regions of rat major pelvic ganglia (DCR-MPG); test: Neurite outgrowth in primary cultures of dorsocaudal regions of rat major pelvic ganglia; type: cell-based, Sprague-Dawley rats
Protocol: The dorsocaudal regions of 24 major pelvic ganglia (DCR-MPG) were dissected from Sprague-Dawley rats. Each sample was placed on a reduced-growth factor Matrigel coated glasscover slide in a culture dish filled with serum-free medium. […] The ganglia cultures were incubated at 37° C. in a humidified atmosphere with 5% CO2. Digital photographs were taken of neurite growth after 96 hours.
Growth Factor Reduced Matrigel (Passaniti, A., et al., Lab. Invest. 1992 67:518-528) was purchased from Becton Dickinson (Mountain View, Calif.). Cell culture grade PGE1 was purchased from Sigma Chemical. (St. Louis, Mo.). RPIM-1640 and other cell culture reagents were purchased from GIBCO Invitrogen Corp. (Grand Island, N.Y.).
Male Sprague-Dawley rats, two-months old, were used in this study. All animal care, treatments, and procedures were approved by the institutional Committee on Animal Research. The rats were sacrificed by intraperitoneal injection of sodium pentobarbital (50 mg/kg) followed by bilateral thoracotomy and the removal of the dorsocaudal region of the major pelvic ganglia (DCR-MPG).
Each rat supplied a pair of DCR-MPG; one was used as control and the contralateral ganglion was treated with PGE1. The DCR-MPG isolated from Sprague-Dawley rats were cultured attached to Matrigel-coated glass coverslips. The coverslips were used as the supporting platform to facilitate samples processing for histological staining and examination. Coverslips were coated as follows. Growth Factor Reduced Matrigel (Becton Dickinson, Mountain View, Calif.) was diluted 3-fold in serum-free RPMI-1640 in a 35-mm culture dish on ice. The diluted Matrigel was then spread onto cold sterilized glass coverslips using a sterilized glass slide as spreader. The coated coverslips were placed in 35-mm culture dishes and incubated at 37° C. for 1 hr to allow the Matrigel to solidify. Each freshly dissected DCR-MPG was rinsed in phosphate-buffered saline (PBS), cut into equal thirds, placed on top of Matrigel coated coverslips and covered by 50 μl cold Growth Factor Reduced Matrigel which had been kept in liquid form. After a 5-min incubation at 37° C. to allow the Matrigel to polymerize, 3 ml of serum-free RPMI 1640 medium supplemented with 1×penicillin-streptomycin-fungizone (Cell Culture Facility, University of California, San Francisco) was added. […] The ganglia cultures were maintained at 37° C. in a humidified atmosphere with 5% CO2.
After 2 to 3 days of incubation, the ganglia and outgrowing neurites were stained for nicotinamide adenine dinucleotide phosphate (NADPH) diaphorase as an indication of nitric oxide synthase (NOS) expression. The culture medium was removed from each culture and replaced with a fixative solution of 2% formaldehyde, 0.002% picric acid in 0.1 M phosphate buffer, pH 8.0. After 20 min of fixation, the tissue was rinsed three times, 10 min each, with phosphate buffer, pH 8.0. The tissue was then incubated with 0.1 mM NADPH, 0.2 mM nitroblue tetrazolium, 0.2% Triton X-100 in buffer for approximately 30 min at room temperature with constant microscopic monitoring for color development. When a deep blue color was detected for NADPH-diaphorase positive nerves, the reaction was terminated by washing the tissues with buffer three times, 10 min each. The coverslips containing the ganglia were then mounted onto glass slides using buffered glycerin as mounting medium.
Neurites were photographed using a professional DCS-420 digital camera (Eastman Kodak, Rochester, N.Y.) connected to an Olympus microscope and an Apple Macintosh PowerMac computer. All samples were photographed and the images were stored for later analysis. The digital images were analyzed using Chemilmager 4000 software (Alpha Innotech Corporation, San Leandro, Calif.) to determine the maximum length of the outgrowing neurites fibers.
Statistical analysis was performed using computer software from Primer of Biostatistics, 3rd ed. (Glantz SA, McGraw-Hill, Inc. New York, 1992). […]

[4] = tested on: mouse neuroblastoma cells; test: Neurite extension in neuroblastoma cells in culture (Prasad, 1972); type: cell-based; settings: converted from micrograms/ml
Excerpt: “Neurite” is a broad term used to describe both axons and dendrites produced by a nerve cell; most commonly used to cover all cellular processes produced by neurons in culture (Kendrew, J., editor, The Encyclopedia of Molecular Biology, Blackwell Science Ltd., Oxford, 1994, page 709).

[5] = tested on: patients after nerve sparing RRP; settings: three months of intracavernous injections three times a week; patients completing treatment; cited from earlier work

Chain of EP2 receptor (Q62053 whole entry): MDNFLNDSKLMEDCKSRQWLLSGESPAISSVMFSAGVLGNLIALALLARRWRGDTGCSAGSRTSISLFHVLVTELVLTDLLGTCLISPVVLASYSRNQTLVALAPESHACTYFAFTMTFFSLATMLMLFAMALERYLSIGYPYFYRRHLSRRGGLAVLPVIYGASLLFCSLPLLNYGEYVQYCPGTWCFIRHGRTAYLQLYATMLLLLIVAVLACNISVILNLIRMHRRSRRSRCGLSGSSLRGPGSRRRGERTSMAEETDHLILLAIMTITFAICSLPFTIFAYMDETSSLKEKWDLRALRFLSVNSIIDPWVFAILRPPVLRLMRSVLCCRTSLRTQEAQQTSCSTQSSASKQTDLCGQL

Row | Compound | Kd (EP2 receptor) [nM] | optimum concentration for neurite extension [1] | neurite extension [2] | Neurite Growth (Length of longest neurite), Mean ([3]; 1 μM PGE1, 96 hours culture) [μm] | Neurite Growth (Length of longest neurite), Mean ([3]; 10 μM PGE1, 96 hours culture) | Neurite Growth (Length of longest neurite), Mean ([3]; 20 μM PGE1, 96 hours culture) [μm] | fiber length induced ([3]; 30 μM PGE1) [µm] | peak neurite growth (mean ± standard deviation) ([3]; 30 μM PGE1) [micrometers] | Neurite Growth (Length of longest neurite), Mean ([3]; 30 μM PGE1, 96 hours culture) [μm] | Neurite Growth (Length of longest neurite), Mean ([3]; 60 μM PGE1, 96 hours culture) [μm] | maximum neurite extension at high doses ([3]; 60 μM, 100 μM) | Neurite Growth (Length of longest neurite), Mean ([3]; 100 μM PGE1, 96 hours culture) [μm] | effect on neurite outgrowth of NADPH positive cells ([3]; primary cultures, 1-100 μM) | PGE1 concentration at which the maximum effect on neurite outgrowth was observed ([3]; tested at 1, 10, 20, 30, 60 or 100 μM) [µM] | optimum concentration for neurite extension [4] | optimum time of exposure [1] [days] | patients reporting recovery of spontaneous erections sufficient for intercourse [5]
1 | CCCCC[C@H](O)/C=C/[C@H]1[C@H](O)CC(=O)[C@@H]1C/C=C\CCCC(=O)O [PGE2, Prostaglandin E2] | ~10 | same optimum concentration | significantly different from control | – | – | – | – | – | – | – | – | – | – | – | – | – | –
2 | Prostaglandin E1 [PGE1] | – | about 10 micrograms/ml | – | 168.00 | 229.33±10.7 μm and 229.33 μm | 244.00 | 250 ± 38.1 | 250±63 | 250.29 | 138.00 | smaller maximum neurite extension | 112.00 | enhance neurite outgrowth | 30 | about 30 micromolar | 3 to 5 | 8 of the 12
